Assay [1] has as its system wild-type and drug-resistant HIV-1 strains. Description: Antiviral assays, all viruses tested summarised. It counts as cell-based.
The target of assay [2] is three MDR protease variants (M1-M3). The experiment in a line: HIV-1 protease inhibition assay. It counts as biochemical. To be noted: against all three MDR protease variants (M1-M3).
The mark [3] stands for this setting: against all the viruses tested (wild-type and MDR HIV-1).

For `CC[C@H](C)CN(C[C@@H](O)[C@H](Cc1ccccc1)NC(=O)OC[C@@H](C)C(=O)OC)S(=O)(=O)c1ccc(OC)cc1` [13f, (R)-methyl 3-((((2S,3R)-3-hydroxy-4-(4-methoxy-N-((S)-2-methylbutyl)phenylsulfonamido)-1-phenylbutan-2-yl)carbamoyl)oxy)-2-methylpropanoate], in assay [1] (setting [3]), the EC50 result was “modest antiviral potency”. Further, the “MDR Ki” value in assay [2] is on record as “excellent potencies in the low nM ranges”.

For `CC[C@H](C)CN(C[C@@H](O)[C@H](Cc1ccccc1)NC(=O)OC[C@@H]1CCC(=O)N1)S(=O)(=O)c1ccc2ncsc2c1` [14j, ((S)-5-oxopyrrolidin-2-yl)methyl ((2S,3R)-3-hydroxy-4-(N-((S)-2-methylbutyl)benzo[d]thiazole-6-sulfonamido)-1-phenylbutan-2-yl)carbamate], in assay [1] (Human immunodeficiency virus 1), the EC50 lay in the range of 15.5 to 35.6 nM. Moreover, in assay [2], the “MDR Ki” value is “excellent potencies in the low nM ranges”.

For `CC[C@H](C)CN(C[C@@H](O)[C@H](Cc1ccccc1)NC(=O)OC[C@@H]1CCC(=O)N1)S(=O)(=O)c1ccc(OC)cc1` [13j, ((S)-5-oxopyrrolidin-2-yl)methyl ((2S,3R)-3-hydroxy-4-(4-methoxy-N-((S)-2-methylbutyl)phenylsulfonamido)-1-phenylbutan-2-yl)carbamate], in assay [1] (setting [3]), the EC50 entry is on record as “modest antiviral potency”. Moreover, the “MDR Ki” value in assay [2] was “excellent potencies in the low nM ranges”.

Consider `CC[C@H](C)CN(C[C@@H](O)[C@H](Cc1ccccc1)NC(=O)OCCNC(=O)C(Cl)Cl)S(=O)(=O)c1ccc(OC)cc1` [13c, 2-(2,2-dichloroacetamido)ethyl (2S,3R)-3-hydroxy-4-(4-methoxy-N-((S)-2-methylbutyl)phenylsulfonamido)-1-phenylbutan-2-ylcarbamate], for which the “MDR Ki” value in assay [2] is on record as “excellent potencies in the low nM ranges”.

Turning to `CC[C@H](C)CN(C[C@@H](O)[C@H](Cc1ccccc1)NC(=O)OCCN1CCNC1=O)S(=O)(=O)c1ccc2ncsc2c1` [14g, 2-(2-oxoimidazolidin-1-yl)ethyl ((2S,3R)-3-hydroxy-4-(N-((S)-2-methylbutyl)benzo[d]thiazole-6-sulfonamido)-1-phenylbutan-2-yl)carbamate], the EC50 entry in assay [1] (setting [3]) was “modest antiviral potency”.

In general, EC50 refers to the concentration needed to bring the measured effect to its halfway point. Read a high EC50 as a less potent agent.

Source of the values: paper PMC3409094 (Journal of medicinal chemistry, 2012).
